Three compounds from patent EP4582080A1, “DISPENSER FOR MUCOSAL ADMINISTRATION COMPRISING 2-DEOXY-GLUCOSE OR ANALOGUES THEREOF” (G.ST Antivirals GmbH, priority 2024, dated 2025) can be followed below.

The nature of series [1]: Mucus penetration through mucus on a semipermeable membrane, measured via mass spectrometry. In kind it is in vitro ADME. The conditions noted are these: 35mg/mL in citrate buffer, pH5 versus pH7, 30min at 37 °C (Fig. 6). As for the experimental part: The present invention is further illustrated by the following figures and examples, without being restricted thereto. • Fig. 1: Imine formation of 2-deoxy-D-glucose (2-DG) with L-lysine in citric acid•Na2HPO4 buffer (pH 7) at different 2-DG concentrations incubated at 37 °C. Indicated values are means (n=4) ± SEM. • Fig. 2: Imine formation of 2-deoxy-D-glucose (2-DG, 35mg/mL) with L-lysine (O.lmg/mL) in citric acid•Na2HPO4 buffer at different pH values incubated at 37 °C. Indicated values are means (n=4) ± SEM. • Fig. 3: Imine formation of 2-deoxy-D-glucose (2-DG, 35mg/mL) with L-lysine (O.lmg/mL) in citrate buffer at different pH values incubated at 37 °C. Indicated values are means (n=4) ± SEM. • Fig. 4: Imine formation of 2-deoxy-D-glucose (2-DG, 35mg/mL) with L-lysine (O.lmg/mL) in tartrate buffer at different pH values incubated at 37 °C. Indicated values are means (n=4) ± SEM. • Fig. 5: Imine formation of 2-deoxy-D-glucose (2-DG, 35mg/mL) with L-lysine (O.lmg/mL) in maleate buffer at different pH values incubated at 37 °C. Indicated values are means (n=4) ± SEM. • Fig. 6: Mucus penetration of 2-deoxy-D-glucose (2-DG), 2-fluoro-2-deoxy-D-glucose (2-FDG) or 2-fluoro-2-deoxy-D-mannose (2-FDM) (all 35mg/mL) in citrate buffer at pH5 and pH7, incubated for 30min at 37 °C.
We measured the mucus penetration potential in the following manner: After applying mucus onto a semipermeable membrane, formulations containing 2-DG or analogues at indicated pH were applied onto the mucus. Penetrated 2-DG or analogues was measured via mass spectrometry.

Series [2] is described as follows: Imine (Schiff's base) formation of 2-DG with L-lysine in buffer. In kind it is physicochemical. The method, then: The present invention is further illustrated by the following figures and examples, without being restricted thereto. • Fig. 1: Imine formation of 2-deoxy-D-glucose (2-DG) with L-lysine in citric acid•Na2HPO4 buffer (pH 7) at different 2-DG concentrations incubated at 37 °C. Indicated values are means (n=4) ± SEM. • Fig. 2: Imine formation of 2-deoxy-D-glucose (2-DG, 35mg/mL) with L-lysine (O.lmg/mL) in citric acid•Na2HPO4 buffer at different pH values incubated at 37 °C. Indicated values are means (n=4) ± SEM. • Fig. 3: Imine formation of 2-deoxy-D-glucose (2-DG, 35mg/mL) with L-lysine (O.lmg/mL) in citrate buffer at different pH values incubated at 37 °C. Indicated values are means (n=4) ± SEM. • Fig. 4: Imine formation of 2-deoxy-D-glucose (2-DG, 35mg/mL) with L-lysine (O.lmg/mL) in tartrate buffer at different pH values incubated at 37 °C. Indicated values are means (n=4) ± SEM. • Fig. 5: Imine formation of 2-deoxy-D-glucose (2-DG, 35mg/mL) with L-lysine (O.lmg/mL) in maleate buffer at different pH values incubated at 37 °C. Indicated values are means (n=4) ± SEM. • Fig. 6: Mucus penetration of 2-deoxy-D-glucose (2-DG), 2-fluoro-2-deoxy-D-glucose (2-FDG) or 2-fluoro-2-deoxy-D-mannose (2-FDM) (all 35mg/mL) in citrate buffer at pH5 and pH7, incubated for 30min at 37 °C. […]

On to `O=CC[C@@H](O)[C@H](O)[C@H](O)CO` [2-DG, 2-deoxy-D-glucose], for which the Mucus penetration result in series [1] is “increased mucus penetration properties”. In addition, the Imine formation entry in series [2] (2-DG 35mg/mL, L-lysine (O.lmg/mL), acidic pH (pH < 7.0) in citric acid•Na2HPO4, citrate, tartrate, maleate buffers, 37 °C (Fig. 2-5)) is recorded as “distinct lowering in the formation of Schiff's bases”; in series [2] (with L-lysine in citric acid•Na2HPO4 buffer (pH 7), different 2-DG concentrations, 37 °C (Fig. 1)), “lead to the formation of Schiff's bases (imines)”.
In the case of `O=C[C@H](F)[C@@H](O)[C@H](O)[C@H](O)CO` [2-FDG, 2-fluoro-2-deoxy-D-glucose], in series [1], the Mucus penetration result is listed as “increased mucus penetration properties”.
With `O=C[C@@H](F)[C@@H](O)[C@H](O)[C@H](O)CO` [2-FDM, 2-fluoro-2-deoxy-D-mannose], in series [1], the Mucus penetration entry is on record as “increased mucus penetration properties”.
